Measured values published in patent US20210260010A1, “COMPOSITIONS AND METHODS FOR THE REDUCTION OR TREATMENT OF INFLAMMATION” (AXCELLA HEALTH INC., priority 2018, published 2021).

Tests used:
[1] = test system: CCL18; assay: IL-4 induced CCL18 secretion in primary human monocyte-derived macrophages (ELISA); type: cell-based; details: for Donor 1 CCL18 Measurements Mean / Donor 2 CCL18 Measurements Mean: relative to vehicle control; for CCL18 Measurements: Mean (fold change relative to vehicle control): IL-4 induced; for IL-4 induced CCL18 secretion (fold change relative to vehicle control): macrophages
Protocol: Lymphocytes were purified from unpurified buffy coats (Research Blood Components) using Lymphocyte Separation Medium (Corning). After centrifugation, the PBMC layer was extracted and rinsed several times using Dulbecco's phosphate-buffered saline (DPBS; Gibco). After straining PBMCs through a 70 uM cell strainer, cells were resuspended and counted using a Cellometer K2 automated cell counter.
CD14+ cells were selected using EasySep™ Human CD14 Positive Selection Kit II ([…] Technologies) according to manufacturer-supplied protocols. Following isolation CD14+ cells were seeded into 10 cm tissue culture plates and differentiated into macrophages using M-CSF (Peprotech).
On day 0, primary human PBMC derived macrophages were seeded in Dulbecco's Modified Eagle Medium (DMEM) (Gibco) supplemented with penicillin-streptomycin (Hyclone) and 10% heat inactivated fetal bovine serum (HI-FBS) (Atlanta Bio) into 96-well microplates (ThermoFisher) and incubated overnight at 37° C., 5% CO2. On day 1, cells were washed once with DPBS and then treated with: • a. Amino acid free DMEM (US Biologicals) containing a defined custom amino acid concentration based on the mean physiological concentrations in blood based on values published in the Human Metabolome Database (HMDB), with 6 mM glucose, 1 mM sodium pyruvate, 10 mM HEPES, penicillin-streptomycin; or • b. The same medium described above with one amino acid or amino acid combination at various concentrations
On day 2, cells were treated with the same mediums described above supplemented with recombinant human interleukin-4 (IL-4; Peprotech). Control wells were treated with tofacitinib (Tocris) and IL-4, PBS with IL-4, or phosphate buffered saline (PBS) alone.
On day 3, the supernatant was collected and immediately frozen in −80° C. freezer. Cells were washed once with DPBS and viability was assessed using the WST-8 Cell Proliferation Cytotoxicity Assay (Dojindo) according to manufacturer-supplied protocol. Following the assay, cells were washed twice with PBS and fixed with 4% paraformaldehyde. Protein levels in supernatant samples were analyzed by ELISA for CCL18 using commercially available kits (R&D Systems) according to manufacturer-supplied protocols.

[2] = test system: IL-6; assay: IL-6 cytokine secretion by TNFα-stimulated primary human hepatic stellate cells (ELISA); type: cell-based; details: for IL-6 cytokine secretion, per-cell normalized, fold change from plasma amino acid background: primary human hepatic stellate cells, two donors, TNFα 3 ng/mL, 12 hours
Protocol: Primary human hepatic stellate cells were obtained from Samsara Sciences and grown in Complete HSC Medium to […] confluence in T75 or T150 flasks below passage 10 were seeded into 96-well plates and incubated for 6 hours at 37° C., 5% CO2 in a humidified incubator. After 6 hours, plates were removed from the incubator washed with DPBS and pretreated (±single amino acid dropout, ±supplemental amino acid dose; see experiment for medium composition) overnight, ˜14-15 hours. After overnight pretreatment, the medium was removed from the cells, and the same pretreatment medium, now supplemented with 3 ng/mL TNFα was applied. Plates were incubated for 12 hours at 37° C., 5% CO2. After 12 hour stimulus with TNFα, supernatant was removed and frozen at −80° C. in two separate aliquots. Plates were washed and incubated with CCK-8 viability reagent (Dojindo) for 1 hour. Viability was measured on the Synergy plate reader. Immediately, the medium was removed and the plates were fixed for immunofluorescence staining.
Human CCL2/MCP1 and Human IL-6 were measured by ELISA (Human […] DuoSet ELISA, R&D Systems; Human IL-6 DuoSet ELISA, R&D Systems) at ⅕ and 1/20 dilution in 1× Reagent Diluent (Reagent Ancillary Kit 2, R&D Systems). Data were normalized to the specific per well cell density determined by Hoechst stained nuclei count.
Tables 39-42 show per-cell normalized IL-6 cytokine secretion in primary human hepatic stellate cells from two donors as a fold change from the plasma amino acid background. Statistical significance calculated by one-way ANOVA with Dunnett's multiple comparison test within each treatment group.

SMILES: CC(C)C[C@H](N)C(=O)O [Leucine, L-Leucine]
- Donor 1 CCL18 Measurements Mean ([1]; Donor 1, Conc. 153 μM): 1.124 fold change
- Donor 1 CCL18 Measurements Mean ([1]; Donor 1, Conc. 3054 μM): 1.302 fold change
- Donor 1 CCL18 Measurements Mean ([1]; Donor 1, Conc. 7635 μM): 1.247 fold change
- Donor 1 CCL18 Measurements Mean ([1]; Donor 1, Conc. 15270 μM): 1.227 fold change
- Donor 2 CCL18 Measurements Mean ([1]; Donor 2, Conc. 153 μM): 1.488 fold change
- Donor 2 CCL18 Measurements Mean ([1]; Donor 2, Conc. 3054 μM): 1.646 fold change
- Donor 2 CCL18 Measurements Mean ([1]; Donor 2, Conc. 7635 μM): 1.825 fold change
- Donor 2 CCL18 Measurements Mean ([1]; Donor 2, Conc. 15270 μM): 1.712 fold change
- CCL18 Measurements: Mean (fold change relative to vehicle control) ([1]; Donor 3, Conc. 153 μM): 1.242 fold change
- CCL18 Measurements: Mean (fold change relative to vehicle control) ([1]; Donor 3, Conc. 3054 μM): 1.502 fold change
- CCL18 Measurements: Mean (fold change relative to vehicle control) ([1]; Donor 3, Conc. 7635 μM): 1.558 fold change
- CCL18 Measurements: Mean (fold change relative to vehicle control) ([1]; Donor 3, Conc. 15270 μM): 1.193 fold change
- IL-4 induced CCL18 secretion (fold change relative to vehicle control) ([1]; Donor 2): significantly increased
- IL-4 induced CCL18 secretion (fold change relative to vehicle control) ([1]; Donor 3): significantly increased
- Fold Change IL-6 Secretion Normalized Per Cell ([2]; donor 1, Conc. 153 μM (plasma background, reference)): 1.0000
- Fold Change IL-6 Secretion Normalized Per Cell ([2]; donor 2, Conc. 153 μM (plasma background, reference)): 1.0000
- IL-6 cytokine secretion, per-cell normalized, fold change from plasma amino acid background [2]: no significant effect

SMILES: N=C(N)NCCC[C@H](N)C(=O)O [Arginine, L-Arginine]
- Donor 1 CCL18 Measurements Mean ([1]; Donor 1, Conc. 109 μM): 1.131 fold change
- Donor 1 CCL18 Measurements Mean ([1]; Donor 1, Conc. 1088 μM): 1.068 fold change
- Donor 1 CCL18 Measurements Mean ([1]; Donor 1, Conc. 2720 μM): 1.121 fold change
- Donor 1 CCL18 Measurements Mean ([1]; Donor 1, Conc. 5440 μM): 1.277 fold change
- Donor 2 CCL18 Measurements Mean ([1]; Donor 2, Conc. 109 μM): 0.9634 fold change
- Donor 2 CCL18 Measurements Mean ([1]; Donor 2, Conc. 1088 μM): 0.9846 fold change
- Donor 2 CCL18 Measurements Mean ([1]; Donor 2, Conc. 2720 μM): 1.031 fold change
- Donor 2 CCL18 Measurements Mean ([1]; Donor 2, Conc. 5440 μM): 1.089 fold change
- CCL18 Measurements: Mean (fold change relative to vehicle control) ([1]; Donor 3, Conc. 109 μM): 1.138 fold change
- CCL18 Measurements: Mean (fold change relative to vehicle control) ([1]; Donor 3, Conc. 1088 μM): 0.9131 fold change
- CCL18 Measurements: Mean (fold change relative to vehicle control) ([1]; Donor 3, Conc. 2720 μM): 1.208 fold change
- CCL18 Measurements: Mean (fold change relative to vehicle control) ([1]; Donor 3, Conc. 5440 μM): 1.206 fold change
- Fold Change IL-6 Secretion Normalized Per Cell ([2]; donor 1, Conc. 109 μM (plasma background, reference)): 1.0000
- Fold Change IL-6 Secretion Normalized Per Cell ([2]; donor 1, Conc. 1088 μM): 0.9828
- Fold Change IL-6 Secretion Normalized Per Cell ([2]; donor 1, Conc. 2720 μM): 1.0231
- Fold Change IL-6 Secretion Normalized Per Cell ([2]; donor 1, Conc. 5440 μM): 0.7776
- Fold Change IL-6 Secretion Normalized Per Cell ([2]; donor 2, Conc. 109 μM (plasma background, reference)): 1.0000
- Fold Change IL-6 Secretion Normalized Per Cell ([2]; donor 2, Conc. 1088 μM): 0.9924
- Fold Change IL-6 Secretion Normalized Per Cell ([2]; donor 2, Conc. 2720 μM): 0.9401
- Fold Change IL-6 Secretion Normalized Per Cell ([2]; donor 2, Conc. 5440 μM): 0.8895
- IL-6 cytokine secretion, per-cell normalized, fold change from plasma amino acid background [2]: no significant effect

SMILES: NC(=O)CC[C@H](N)C(=O)O [Glutamine, L-Glutamine]
- Donor 1 CCL18 Measurements Mean ([1]; Donor 1, Conc. 749 μM): 1.382 fold change
- Donor 1 CCL18 Measurements Mean ([1]; Donor 1, Conc. 3747 μM): 1.492 fold change
- Donor 1 CCL18 Measurements Mean ([1]; Donor 1, Conc. 11242 μM): 1.645 fold change
- Donor 1 CCL18 Measurements Mean ([1]; Donor 1, Conc. 22484 μM): 1.992 fold change
- Donor 2 CCL18 Measurements Mean ([1]; Donor 2, Conc. 749 μM): 1.4 fold change
- Donor 2 CCL18 Measurements Mean ([1]; Donor 2, Conc. 3747 μM): 1.559 fold change
- Donor 2 CCL18 Measurements Mean ([1]; Donor 2, Conc. 11242 μM): 1.857 fold change
- Donor 2 CCL18 Measurements Mean ([1]; Donor 2, Conc. 22484 μM): 2.219 fold change
- CCL18 Measurements: Mean (fold change relative to vehicle control) ([1]; Donor 3, Conc. 749 μM): 1.56 fold change
- CCL18 Measurements: Mean (fold change relative to vehicle control) ([1]; Donor 3, Conc. 3747 μM): 1.606 fold change
- CCL18 Measurements: Mean (fold change relative to vehicle control) ([1]; Donor 3, Conc. 11242 μM): 2.428 fold change
- CCL18 Measurements: Mean (fold change relative to vehicle control) ([1]; Donor 3, Conc. 22484 μM): 2.33 fold change
- IL-4 induced CCL18 secretion (fold change relative to vehicle control) ([1]; Donor 1): significantly increased
- IL-4 induced CCL18 secretion (fold change relative to vehicle control) ([1]; Donor 2): significantly increased
- IL-4 induced CCL18 secretion (fold change relative to vehicle control) ([1]; Donor 3): significantly increased
- Fold Change IL-6 Secretion Normalized Per Cell ([2]; donor 1, Conc. 562 μM (plasma background, reference)): 1.0000
- Fold Change IL-6 Secretion Normalized Per Cell ([2]; donor 2, Conc. 562 μM (plasma background, reference)): 1.0000
- Fold Change IL-6 Secretion Normalized Per Cell ([2]; donor 2, Conc. 3747 μM): 0.7100
- IL-6 cytokine secretion, per-cell normalized, fold change from plasma amino acid background [2]: significantly reduced

SMILES: CC[C@H](C)[C@H](N)C(=O)O [Isoleucine, L-Isoleucine]
- Donor 1 CCL18 Measurements Mean ([1]; Donor 1, Conc. 66 μM): 1.07 fold change
- Donor 1 CCL18 Measurements Mean ([1]; Donor 1, Conc. 1328 μM): 1.12 fold change
- Donor 1 CCL18 Measurements Mean ([1]; Donor 1, Conc. 3320 μM): 1.181 fold change
- Donor 1 CCL18 Measurements Mean ([1]; Donor 1, Conc. 6639 μM): 0.9823 fold change
- Donor 2 CCL18 Measurements Mean ([1]; Donor 2, Conc. 66 μM): 1.204 fold change
- Donor 2 CCL18 Measurements Mean ([1]; Donor 2, Conc. 1328 μM): 1.461 fold change
- Donor 2 CCL18 Measurements Mean ([1]; Donor 2, Conc. 3320 μM): 1.503 fold change
- Donor 2 CCL18 Measurements Mean ([1]; Donor 2, Conc. 6639 μM): 1.685 fold change
- CCL18 Measurements: Mean (fold change relative to vehicle control) ([1]; Donor 3, Conc. 66 μM): 1.056 fold change
- CCL18 Measurements: Mean (fold change relative to vehicle control) ([1]; Donor 3, Conc. 1328 μM): 1.026 fold change
- CCL18 Measurements: Mean (fold change relative to vehicle control) ([1]; Donor 3, Conc. 3320 μM): 1.431 fold change
- CCL18 Measurements: Mean (fold change relative to vehicle control) ([1]; Donor 3, Conc. 6639 μM): 1.111 fold change
- IL-4 induced CCL18 secretion (fold change relative to vehicle control) ([1]; Donor 2): significantly increased
- Fold Change IL-6 Secretion Normalized Per Cell ([2]; donor 1, Conc. 66 μM (plasma background, reference)): 1.0000
- Fold Change IL-6 Secretion Normalized Per Cell ([2]; donor 2, Conc. 66 μM (plasma background, reference)): 1.0000
- IL-6 cytokine secretion, per-cell normalized, fold change from plasma amino acid background [2]: no significant effect
